Reference: patent publication US7179941B2, “Carbonylamino-substituted acyl phenyl urea derivatives, process for their preparation and their use” (Sanofi-Aventis Deutschland GmbH, priority 2003, dated 2007)

These compounds were tested against T1, human glycogen phosphorylase a (Homo sapiens, UniProt P06737) (assay: Glycogen phosphorylase a activity test). Details: read-out: inhibition at a concentration of 100 μM.
T1 sequence (P06737 1-847): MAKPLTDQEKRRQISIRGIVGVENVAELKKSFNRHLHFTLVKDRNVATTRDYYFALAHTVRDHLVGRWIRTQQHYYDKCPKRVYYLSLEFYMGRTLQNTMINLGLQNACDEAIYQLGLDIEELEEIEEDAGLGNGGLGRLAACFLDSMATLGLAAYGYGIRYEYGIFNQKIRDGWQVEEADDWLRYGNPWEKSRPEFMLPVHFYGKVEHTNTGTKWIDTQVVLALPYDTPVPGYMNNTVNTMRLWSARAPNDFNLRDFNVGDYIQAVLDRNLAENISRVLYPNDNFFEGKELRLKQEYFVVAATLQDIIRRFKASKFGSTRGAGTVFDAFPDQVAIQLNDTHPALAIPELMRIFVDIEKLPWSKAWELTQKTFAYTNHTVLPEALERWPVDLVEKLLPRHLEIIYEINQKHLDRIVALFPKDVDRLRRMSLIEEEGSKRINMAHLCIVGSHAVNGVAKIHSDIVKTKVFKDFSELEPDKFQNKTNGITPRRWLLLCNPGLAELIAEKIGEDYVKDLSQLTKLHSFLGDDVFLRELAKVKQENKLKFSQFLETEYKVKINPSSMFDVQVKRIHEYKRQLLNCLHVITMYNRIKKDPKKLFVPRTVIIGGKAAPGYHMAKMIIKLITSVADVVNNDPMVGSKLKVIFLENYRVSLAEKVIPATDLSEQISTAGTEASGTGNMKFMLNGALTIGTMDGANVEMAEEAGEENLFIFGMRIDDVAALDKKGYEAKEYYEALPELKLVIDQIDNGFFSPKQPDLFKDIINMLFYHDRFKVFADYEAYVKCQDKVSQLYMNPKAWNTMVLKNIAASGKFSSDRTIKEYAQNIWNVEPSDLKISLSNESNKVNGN
Format: biochemical

Structure (SMILES) | inhibition at 100 µM [%]
O=C(O)C(=O)Nc1ccccc1C(=O)O [Comparative Example A, reference compound] | 11

These compounds were tested against T1, human glycogen phosphorylase a (assay: Glycogen phosphorylase a activity test). Details: 10 μM test substance; GPa measured in reverse direction (glycogen synthesis from glucose 1-phosphate).
Format: biochemical
Method: Glycogen Phophorylase a Activity Test
The effect of compounds on the activity of the active form of glycogen phosphorylase (GPa) was measured in the reverse direction by monitoring the synthesis of glycogen from glucose 1-phosphate by determining the release of inorganic phosphate. All reactions were carried out as duplicate determinations in 96-well microtiter plates (half area plates, Costar No. 3696), and the change in absorption as a consequence of the formation of the reaction product was measured at the wavelength specified below in a Multiskan Ascent Elisa Reader (Lab Systems, Finland).
In order to measure the GPa enzyme activity in the reverse direction, the conversion of glucose 1-phosphate to glycogen and inorganic phosphate was measured by the general method of Engers et al. (Engers HD, Shechosky S, Madsen NB, Can J Biochem 1970 July;48(7):746–754) with the following modifications: human glycogen phosphorylase a (for example containing 0.76 mg of protein/ml (Aventis Pharma Deutschland GmbH), dissolved in buffer solution E (25 mM P-glycerophosphate, pH 7.0, 1 mM EDTA and 1 mM dithiotreitol) was diluted to a concentration of 10 μg of protein/ml with buffer T (50 mM Hepes, pH 7.0, 100 mM KCl, 2.5 mM EDTA, 2.5 mM MgCl2.6H2O) and addition of 5 mg/ml of glycogen. Test substances were prepared as a 10 mM solution in DMSO and diluted to 50 μM with buffer solution T. To 10 μl of this solution were added 10 μl of 37.5 mM glucose dissolved in buffer solution T and 5 mg/ml of glycogen, and also 10 μl of a solution of human glycogen phosphorylase a (10 μg of protein/ml) and 20 μl of 2.5 mM glucose 1-phosphate. The base value of the activity of glycogen phosphorylase a in the absence of test substance was determined by adding 10 μl of buffer solution T (0.1% DMSO). The mixture was incubated at room temperature for 40 minutes and the released inorganic phosphate was determined by means of the general method of Drueckes et al. (Drueckes P, Schinzel R, Palm D, Anal Biochem 1995 Sep. 1;230(1):173–177) with the following modifications: 50 μl of a stop solution of 7.3 mM of ammonium molybdate, 10.9 mM of zinc acetate, 3.6% of ascorbic acid, 0.9% of SDS are added to 50 μl of the enzyme mixture. After 60 minutes of incubation at 45° C., the absorption was measured at 820 nm. To determine the background absorption, the stop solution was added immediately after the addition of the glucose 1-phosphate solution in a separate reaction.

Structure (SMILES) | % Inhibition at 10 μM | inhibition at 10 µM [%]
O=C(O)C(=O)Nc1ccccc1C(=O)O [Comparative Example A, reference compound] | no inhibition | 
C#CCCC(=O)Nc1ccc(OC)c(NC(=O)NC(=O)c2cc(F)c(F)cc2Cl)c1 [Example 57] | 99% | 
COc1ccc(NC(=O)CN(C)C)cc1NC(=O)NC(=O)c1cc(F)c(F)cc1Cl [Example 58] | 99% | 
CCOCC(=O)Nc1ccc(OC)c(NC(=O)NC(=O)c2cc(F)c(F)cc2Cl)c1 [Example 59] | 103% | 
C#CCC(=O)Nc1ccc(OC)c(NC(=O)NC(=O)c2cc(F)c(F)cc2Cl)c1 [Example 60] | 103% | 
COc1ccc(NC(=O)C(F)F)cc1NC(=O)NC(=O)c1cc(F)c(F)cc1Cl [Example 61] | 100% | 
COc1ccc(NC(=O)CO)cc1NC(=O)NC(=O)c1cc(F)c(F)cc1Cl [Example 62] | 101% | 
CC(=O)Nc1ccc(OC(F)(F)F)c(NC(=O)NC(=O)c2cc(F)c(F)cc2Cl)c1 [Example 64, N-{3-[3-(2-Chloro-4,5-difluorobenzoyl)ureido]-4-trifluoromethoxyphenyl}acetamide] |  | 101
COC(=O)C(=O)Nc1ccc(OC(F)(F)F)c(NC(=O)NC(=O)c2cc(F)c(F)cc2Cl)c1 [Example 65] | 98% | 
COC(=O)CC(=O)Nc1ccc(OC(F)(F)F)c(NC(=O)NC(=O)c2cc(F)c(F)cc2Cl)c1 [Example 66] | 100% | 
COC(=O)CCC(=O)Nc1ccc(OC(F)(F)F)c(NC(=O)NC(=O)c2cc(F)c(F)cc2Cl)c1 [Example 67] | 101% | 
O=C(NC(=O)c1cc(F)c(F)cc1Cl)Nc1cc(NC(=O)C(=O)O)ccc1OC(F)(F)F [Example 68] | 101% | 
O=C(O)CC(=O)Nc1ccc(OC(F)(F)F)c(NC(=O)NC(=O)c2cc(F)c(F)cc2Cl)c1 [Example 69] | 100% | 
O=C(O)CCC(=O)Nc1ccc(OC(F)(F)F)c(NC(=O)NC(=O)c2cc(F)c(F)cc2Cl)c1 [Example 70] | 99% | 
CC(=O)Nc1ccc(N(C)C)c(NC(=O)NC(=O)c2cc(F)c(F)cc2Cl)c1 [Example 71] | 97% | 
CCN(CC)c1ccc(NC(C)=O)cc1NC(=O)NC(=O)c1cc(F)c(F)cc1Cl [Example 72] | 96% | 

Structure (SMILES) | % Inhibition at 10 μM | inhibition at 10 µM [%]
CC(=O)Nc1ccc(N2CCCC2)c(NC(=O)NC(=O)c2cc(F)c(F)cc2Cl)c1 [Example 73, N-{3-[3-(2-Chloro-4,5-difluorobenzoyl)ureido]-4-pyrrolidin-1-ylphenyl}acetamide] |  | 97
COC(=O)CC(=O)Nc1ccc(N(C)C)c(NC(=O)NC(=O)c2cc(F)c(F)cc2Cl)c1 [Example 74] | 98% | 
COC(=O)CC(=O)Nc1ccc(N2CCCC2)c(NC(=O)NC(=O)c2cc(F)c(F)cc2Cl)c1 [Example 75] | 100% | 
CN(C)c1ccc(NC(=O)CC(=O)O)cc1NC(=O)NC(=O)c1cc(F)c(F)cc1Cl [Example 76] | 99% | 
O=C(O)CC(=O)Nc1ccc(N2CCCC2)c(NC(=O)NC(=O)c2cc(F)c(F)cc2Cl)c1 [Example 77] | 98% | 
O=C(O)CCC(=O)Nc1cccc(NC(=O)NC(=O)c2ccc(Cl)cc2Cl)c1 [Example 78] | 86% | 
NCCCC(=O)Nc1cccc(NC(=O)NC(=O)c2ccc(Cl)cc2Cl)c1 [Example 79] | 80% | 
CC(=O)Nc1ccc(Cl)c(NC(=O)NC(=O)c2ccc(Cl)cc2Cl)c1.O=C(O)C(F)(F)F [Example 80] | 98% | 
O=C(O)CCC(=O)Nc1ccc(Cl)c(NC(=O)NC(=O)c2ccc(Cl)cc2Cl)c1 [Example 81] | 97% | 
COc1ccc(NC(C)=O)cc1NC(=O)NC(=O)c1ccc(Cl)cc1Cl [Example 82] | 102% | 
COc1ccc(NC(=O)CCC(=O)O)cc1NC(=O)NC(=O)c1ccc(Cl)cc1Cl [Example 83] | 103% | 
O=C(O)CCC(=O)Nc1ccc(Cl)c(NC(=O)NC(=O)c2cc(F)c(F)cc2Cl)c1 [Example 84] | 100% | 
CC(=O)Nc1ccc(Cl)c(NC(=O)NC(=O)c2cc(F)c(F)cc2Cl)c1 [Example 85] | 98% | 
O=C(O)CC(=O)Nc1ccc(Cl)c(NC(=O)NC(=O)c2cc(F)c(F)cc2Cl)c1 [Example 86] | 95% | 
COC(=O)C(=O)Nc1ccc(Cl)c(NC(=O)NC(=O)c2cc(F)c(F)cc2Cl)c1 [Example 87] | 96% | 
O=C(NC(=O)c1cc(F)c(F)cc1Cl)Nc1cc(NC(=O)C(=O)O)ccc1Cl [Example 88] | 97% | 
